Legend:
ND2 mutant flies = assay: Mechanical stress-induced (bang sensitive) paralysis test in ND2 mutant flies; type: in vivo, Drosophila; conditions: ND2 mutant flies treated throughout life with 10 μM of drug; tested after aging 15 days
From the text: Mutations affecting mitochondrial complex I, a multi-subunit assembly that couples electron transfer to proton pumping, are the most frequent cause of heritable mitochondrial diseases. Here, a Drosophila model of complex I deficiency caused by a homoplasmic mutation in the mitochondrial-encoded NADH dehydrogenase subunit 2 (ND2) gene is used. […] This ND2 mutant model was used in “bang sensitivity” behavioral analysis to show the effects of kinetin treatment.
All Drosophila strains were maintained on standard cornmeal/molasses medium at 25° C. with a 12-hour lightdark cycle. The ND2de11 and ND2ins1 stock was obtained from the laboratory of Dr. Patrick O'Farrell (University of California, San Francisco) (Xu et al., 2008). The isogenic w1118 stock was obtained from the Bloomington Drosophila Stock Center at Indiana University. […]
Drosophila strains with mutations affecting mitochondrial function often show an analogous seizure-like paralytic phenotype caused by mechanical-stress, termed “bang sensitivity” (Celotto et al., 2011; Fergestad et al., 2006; Ganetzky and Wu, 1982). […] Briefly, flies were vortexed for 10 seconds in inverted glass vials containing cotton stoppers, and the time required for each individual animal to right itself was recorded. […]
Unless otherwise stated statistical significance tests were calculated using an unpaired two-tailed Student's t-test.

[1] = system: mouse primary dopaminergic neuron culture; assay: Survival of TH positive dopaminergic neurons in primary mesencephalic culture injured by MPP+; type: cell-based; conditions: for TH neuron survival against MPP+, % of cell survival / dopaminergic (TH positive) neuron survival, percentage of control / decrease of TH positive neurons: MPP+ 4 μM for 48 h
From the text: Parkinson's disease (PD) is the second most common neurodegenerative disorder in the United States. The predominant motor symptoms of PD including slow movement, resting tremor, rigidity, and gait disturbance, are caused by the loss of dopaminergic neurons in the substantia nigra (SN). Although the aetiology of PD remains unknown, both genetic and environmental factors appear to play a role (Paisan-Ruiz et al., 2004; Vila & Przedborski, 2004). The neurotoxicant 1-methyl-4-phenyl-1, 2, 3, 6-tetrahydropyridine (MPTP) is a specific dopaminergic neuronal toxin. MPTP is converted to 1-methyl-4-phenyl pyridinium (MPP+) by astroglia and then causes specific dopaminergic neuronal death in the SN, thus leading to the clinical symptoms of PD in humans, primates and mice (Uhl et al., 1985). For this reason, MPTP-induced dopaminergic neurotoxicity in mice is widely used as a model for PD research. It has been largely reported that MPP+ causes neurodegeneration of dopaminergic neurones in vitro and provides a useful model of Parkinson's disease in vitro. […] This study investigated the neuroprotective effect of Mitokinin test compound (kinetin) in function on time of pre-incubation and concentration on mouse primary mesencephalic cultures injured by exposure to 1-methyl-4-phenylpyridinium (MPP+), a Parkinson' disease model in vitro. BDNF at 10 ng/ml will be used as a positive control in this study.
Mouse dopaminergic neurons are cultured as described by Schinelli et al., 1988 and Viswanath et al., 2001. Briefly pregnant female mouse of 14 days gestation are killed by cervical dislocation (Mouse C57Bl/6; Janvier Labs) and the foetuses are removed from the uterus. The embryonic midbrains are removed and placed in ice-cold medium of Leibovitz (L15; PanBiotech; ref: PO4-27055, batch: 4290114) containing 2% of Penicillin-Streptomycin (PS; PanBiotech; ref: P06-07100; batch: 4810114) and 1% of bovine serum albumin (BSA; PanBiotech; Ref: P06-1391100, batch: K030913). Only the ventral portions of the mesencephalic flexure are used for the cell preparations as this is the region of the developing brain rich in dopaminergic neurons. The midbrains are dissociated by trypsinisation for 20 min at 37° C. (Trypsin EDTA IX; PanBiotech Ref: P10-023100; batch: 1681013). The reaction is stopped by the addition of Dulbecco's modified Eagle's medium (DMEM; PanBiotech Ref PO4-03600; batch: 9710913) containing DNAase I grade II (0.1 mg/ml; Panbiotech, ref: P60-37780100; batch: H130919) and 10% of foetal calf serum (FCS; Invitrogen; ref: 10270-098; batch: 41Q4120K). Cells are then mechanically dissociated by 3 passages through a 10 ml pipette. Cells are then centrifuged at 180×g for 10 min at 4° C. temperature on a layer of BSA (3.5%) in L15 medium. The supernatant is discarded and the cells of pellet is re-suspended in a defined culture medium consisting of Neurobasal (Invitrogen, ref: 21103; batch: 1556347) supplemented with B27 (2%; Invitrogen; ref: 17504; batch: 1446691), L-glutamine (2 mM; PanBiotech; ref: PO4-80100; batch: 6620314) and 2% of PS solution. Viable cells are counted in a Neubauer cytometer using the trypan blue exclusion test. The cells are seeded at a density of 70 000 cells/well in 96 well-plates (wells are pre-coated with poly-L-lysine (Greiner)) and are cultured at 37° C. in a humidified air (95%)/CO2 (5%) atmosphere. Half of the medium are changed every 2 days with fresh medium. In these conditions, after 5 days of culture, astrocytes are present in the culture and release growth factor allowing neurons differentiation. Five to six percents of the neuronal cell population are dopaminergic neurons.
Briefly, on day 5 of culture, the medium was removed and fresh medium was added, without or with kinetin (Sigma ref 48130) at 100 μM, 50 μM, 25 μM and with and without BDNF 10 ng/ml for 2 days, 6 days or 10 days. […]

SH-SYSY cells = assay: Modulation of PINK1: Caspase-Glo caspase 3/7 cleavage after MG-132 in SH-SYSY cells; type: cell-based; conditions: then 25 uM MG-132 for 16 hours, % of kinetin's caspase cleavage values; for Run1 Compound (avg as % kinetin): Run1, compound 96 hours; for Run2 Compound (avg as % kinetin): Run2, compound 96 hours; for Run3 Compound (avg as % kinetin): Run3, compound 96 hours
Description: We grew SH-SYSY cells in 1:1 mix of DMEM and F12 supplemented with 10% FBS and Pen/Strep (1×) antibiotics on 96 well plates (˜5,000 cells/well) at 37 degrees Celsius in 90 ul per well. We added 10 ul of 10× mix of the compounds identified below in a DMSO and medium mix to the cells. (min. 2 wells per compound per plate), allowed it to incubate for 96 hours at 37 degrees Celsius, then added 25 uM MG-132 for 16 hours (a proteasome inhibitor that triggers apoptosis; this toxicity is known to be opposed by PINK1). Following incubation with MG-132 we added 100 ul of Promega Caspase-Glo® reagent directly to each well to lyse cells and provide a luminescent Caspase 3/7 substrate peptide to quantify caspase cleavage activity. All of the values in Table 2 are presented as a % of kinetin's caspase cleavage values (kinentin was run as a positive control in parallel to the analogs of kinetin shown below).

## Nc1ncnc2nc[nH]c12 [Adenine]
ND2 mutant flies
  mean time necessary for recovery (to right itself) after 10 seconds vortexing: approximately 9 seconds

## c1coc(CNc2ncnc3nc[nH]c23)c1 [Kinetin, kinetin]
[1]; Kinetin 25 μM pre-incubated 10 days
  TH neuron survival against MPP+, % of cell survival: 76%
[1]; Kinetin 100 μM pre-incubated 2 days
  dopaminergic (TH positive) neuron survival, percentage of control: 70%
[1]; Kinetin 100 μM pre-incubated 6 days
  dopaminergic (TH positive) neuron survival, percentage of control: 72%
[1]; Kinetin 100 μM pre-incubated 10 days
  toxicity on dopaminergic neurons on long incubation: toxic
[1]; Kinetin 5004 pre-incubated 10 days
  TH neuron survival against MPP+, % of cell survival: 84%
ND2 mutant flies
  mean time necessary for recovery (to right itself) after 10 seconds vortexing: 0.5 s

## C[n+]1ccc(-c2ccccc2)cc1 [MPP^+, 1-methyl-4-phenylpyridinium]
[1]; 2 days pre-incubation series (FIG. 1)
  decrease of TH positive neurons: ~50%
[1]; 6 days pre-incubation series (FIG. 2)
  decrease of TH positive neurons: ~54%
[1]; 10 days pre-incubation series (FIG. 3)
  decrease of TH positive neurons: ~47%

## c1coc(CC2CNc3ncnc4ncn2c34)c1 (stereo not shown) [MTK- 48, 7-(furan-2-ylmethyl)-8,9-dihydro-7H-imidazo[4,5,1-de]pteridine]
SH-SYSY cells
  Run1 Compound (avg as % kinetin): 92%
  Run2 Compound (avg as % kinetin): 122%
  Run3 Compound (avg as % kinetin): 95%

## c1coc(CNc2ncnc3[nH]ncc23)c1 [MTK- 51, N-(furan-2-ylmethyl)-1H-pyrazolo [3,4-d]pyrimidin-4-amine]
SH-SYSY cells
  Run1 Compound (avg as % kinetin): 80%
  Run2 Compound (avg as % kinetin): 92%

## c1coc(CNc2ccnc3[nH]cnc23)c1 [MTK- 58, N-(furan-2-ylmethyl)-3H-imidazo[4,5-b]pyridin-7-amine]
SH-SYSY cells
  Run1 Compound (avg as % kinetin): 94%
  Run2 Compound (avg as % kinetin): 108%

## c1coc(CNc2ccnc3[nH]ncc23)c1 [MTK- 59, N-(furan-2-ylmethyl)-1H-pyrazolo[3,4-b]pyridin-4-amine]
SH-SYSY cells
  Run1 Compound (avg as % kinetin): 72%
  Run2 Compound (avg as % kinetin): 108%

## c1coc(CNc2nccc3[nH]ncc23)c1 [MTK- 62, N-(furan-2-ylmethyl)-1H-pyrazolo[4,3-c]pyridin-4-amine]
SH-SYSY cells
  Run1 Compound (avg as % kinetin): 88%
  Run2 Compound (avg as % kinetin): 132%

## Cc1nc2c(NCc3ccco3)ncnc2[nH]1 [MTK- 64, N-(furan-2-ylmethyl)-8-methyl-9H-purin-6-amine]
SH-SYSY cells
  Run1 Compound (avg as % kinetin): 79%
  Run2 Compound (avg as % kinetin): 120%
  Run3 Compound (avg as % kinetin): 93%

## Nc1nc(NCc2ccco2)c2nc[nH]c2n1 [MTK- 68, N-6-(furan-2-ylmethyl)-9H-purine-2,6-diamine]
SH-SYSY cells
  Run1 Compound (avg as % kinetin): 95%

B1: BDNF: brain derived neurotrophic factor, used at 10 ng/ml as positive control (protein, UniProt P23560 19-247, looked up)
Neurotrophic factor BDNF …: APMKEANIRGQGGLAYPGVRTHGTLESVNGPKAGSRGLTSLADTFEHVIEELLDEDQKVRPNEENNKDADLYTSRVMLSSQVPLEPPLLFLLEEYKNYLDAANMSMRVRRHSDPARRGELSVCDSISEWVTAADKKTAVDMSGGTVTVLEKVPVSKGQLKQYFYETKCNPMGYTKEGCRGIDKRHWNSQCRTTQSYVRALTMDSKKRIGWRFIRIDTSCVCTLTIKRGR
[1]; BDNF 10 ng/mL, 2 days pre-incubation series
  dopaminergic (TH positive) neuron survival, percentage of control: 87%
[1]; BDNF 10 ng/mL, 6 days pre-incubation series
  dopaminergic (TH positive) neuron survival, percentage of control: 84%
[1]; BDNF 10 ng/mL, 10 days pre-incubation series
  dopaminergic (TH positive) neuron survival, percentage of control: 91%

Reference: patent publication US10851109B2, “Compositions and methods of using the same for treatment of neurodegenerative and mitochondrial disease” (Mitokinin, Inc., priority 2014, dated 2020)
